{"source": "patent US6923993B2", "about": "“Process of isolating extract from the Euphorbia obesa plant and methods for using the same” (priority 2001, dated 2005)", "origin": "cited, not measured here", "key": {"skin of mice": {"tested_on": "skin of mice", "conditions": "topically applied"}, "myelocytic leukemia": {"tested_on": "myelocytic leukemia", "conditions": "intravenous 1 mg; patients refractory to cytosine arabinoside, retinoic acid and other antileukemic drugs"}, "[1]": {"tested_on": "white blood cell (WBC) count", "conditions": "intravenous; patients with low WBC after cytotoxic chemotherapy"}, "[2]": {"conditions": "doses of 0.5 to 1 mg"}, "[3]": {"tested_on": "HL-60 human promyelocytic leukemia cells", "conditions": "in vitro"}}, "data": [{"molecule": "CCCCCCCCCCCCCC(=O)O[C@@H]1[C@@H](C)[C@@]2(O)[C@@H](C=C(CO)C[C@]3(O)C(=O)C(C)=C[C@@H]23)[C@H]2C(C)(C)[C@]12OC(C)=O", "note": "[TPA, 12-O-tetradecanoyl-13-phorbol acetate]", "values": [{"measurement": "effect on mouse skin", "setting": "skin of mice", "result": "tumor promoter"}, {"measurement": "activity in myelocytic leukemia patients", "setting": "myelocytic leukemia", "result": "pharmacological activity"}, {"measurement": "WBC count and neutrophils in the blood", "setting": "[1]", "result": "increase in WBC count and neutrophilia"}, {"measurement": "toxicity in vivo", "setting": "[2]", "result": "toxic effects"}, {"measurement": "differentiation and DNA synthesis of HL-60 cells", "setting": "[3]", "result": "stimulate differentiation and inhibit DNA synthesis"}]}]}
